Reference: US6121323A, “Bishydroxyureas” (3M Innovative Properties Company, priority 1997, dated 2000)

System: Leukotriene C4 production in mouse peritoneal macrophages
Test: In vitro mouse peritoneal macrophage Leukotriene C4 inhibition
Assay type: cell-based
Conditions: zymosan stimulated, read-out: Percent Inhibition
Experimental: IN VITRO MOUSE PERITONEAL MACROPHAGE LEUKOTRIENE C4 INHIBITION
The test described below measures the ability of compounds to inhibit the production of Leukotriene C4 in mouse peritoneal macrophages.
Mice (female, CD-1, weighing 25 g) are euthanized by exposure to carbon dioxide. The pertoneal cavity is exposed by peeling back the abdominal skin. A 5 mL portion of media (M199 containing 1% fetal bovine serum, 100 units/mL of penicillin, 100 μg/mL streptomycin, 20 units/mL of heparin and no glutamine) is injected into the exposed peritoneal cavity of each mouse. The lavage fluid is removed and pooled to yield proximately 1×10^6 macrophages/mL. A 2 mL portion of lavage fluid is added to each well of a 24 well sterile multidish and the marcophages are allowed to adhere to the plate for 2 hours at 37° C. in a 5% carbon dioxide atmosphere. The media is removed and each well is washed with 2 mL of phosphate buffered saline (PBS). A 1 mL portion of media, without heparin, but containing 5 μCi/mL of 3H-myoinositol is added to each well and the plates are incubated overnight at 37° C. in a 5% carbon dioxide atmosphere. The media is removed and the cells are washed twice with 2 mL portions of PBS. A 1 mL portion of Puck's saline formulation A containing 1 mM calcium chloride, 1 mM magnesium chloride and 10 mM lithium chloride is added to each well. (The Puck's formulation is made first as a 10× solution which contains 4 g of potassium chloride, 80 g of sodium chloride and 10 g of glucose per liter. The Puck's saline formulation A is made using 10 mL of the 10× Puck's formulation, 0.47 mL of 7.5% sodium bicarbonate and 2 mL of 1M N-2-hydroxyethylpiperazine-N'-2-ethanesulfonic acid per 100 mL.)
Compounds are dissolved in dimethyl sulfoxide. Compounds are tested at concentrations of 10, 1 and 0.1 μM. Each concentration is tested in duplicate.
A 1 μL portion of compound solution or vehicle (DMSO) is added to each well and the plates are incubated for 15 minutes at 37° C. in a 5% carbon dioxide atmosphere. Zymosan is then added to provide a final concentration of 50 μg/mL in each well and the plate is incubated for 1 to 2 hours at 37° C. in a 5% carbon dioxide atmosphere.
Following incubation 200 μL portions of media are transferred to 12×75 mm tubes. The tubes are either assayed immediately or stored at -20° C. until they can be assayed.
The media is assayed for the presence of Leukotriene C4 by radioimmunoassay which is performed according to the manufacturer's instructions (Advanced Magnetics; Cambridge, Mass.). Inhibition of LTC4 production is calculated as the ratio of the amount of LTC4 formed in the presence (LTC4 +cpd) and absence (LTC4 no cpd)of compound according to the equation below. [formula] IC50 values (concentration of compound producing a 50% inhibition of LTC4 production) are calculated by linear regression analysis of percentage inhibition versus log compound concentration plots.

Row | SMILES | inhibition at 0.1 µM [%] | inhibition at 1 µM [%] | inhibition at 10 µM [%]
1 | CCc1cc(Cc2cc(CC)c(NC(=O)N(C)O)c(CC)c2)cc(CC)c1NC(=O)N(C)O [Example 4, 4,4'-Methylenebis(1-hydroxy-1-methyl-3-(2,6-diethylphenyl)urea)] | -24 | 6 | 67
2 | CN(O)C(=O)Nc1ccc(C(c2ccc(NC(=O)N(C)O)cc2)(C(F)(F)F)C(F)(F)F)cc1 [Example 5, 4,4'-(2,2-Hexafluoropropane)bis(1-hydroxy-1-methyl-3-phenylurea)] | 91 | 100 | 100
3 | CN(O)C(=O)Nc1ccc(Oc2ccc(NC(=O)N(C)O)cc2)cc1 [Example 6, 4,4'-Oxybis(1-hydroxy-1-methyl-3-phenylurea)] | 48 | 99 | 99
4 | CN(O)C(=O)Nc1cccc(NC(=O)N(C)O)c1 [Example 7, 1,1'-(m-Phenylene)bis(3-hydroxy-3-methylurea)] | -19 | 7 | 98
5 | CN(O)C(=O)Nc1cccc2c(NC(=O)N(C)O)cccc12 [Example 8, 1,1'-(1,5-Naphthalene)bis(3-hydroxy-3-methylurea)] | 55 | 76 | 91
6 | CN(O)C(=O)N[C@H]1CC[C@H](NC(=O)N(C)O)CC1 [Example 9, trans-1,4-Cyclohexanebis(3-hydroxy-3-methylurea)] | 1 | 1 | -6
7 | O=C(NCCCCCCNC(=O)N(O)Cc1ccccc1)N(O)Cc1ccccc1 [Example 10, 1,1'-Hexamethylenebis(3-hydroxy-3-benzylurea)] | 7 | 94 | 94
8 | COc1cc(-c2ccc(NC(=O)N(C)O)c(OC)c2)ccc1NC(=O)N(C)O [Example 11] | 42 | 100 | 99
